This note sets out measurements from ChEMBL document CHEMBL1146715, “The discovery and synthesis of novel adenosine substituted 2,3-dihydro-1H-isoindol-1-ones: potent inhibitors of poly(ADP-ribose) polymerase-1 (PARP-1)” (Bioorg Med Chem Lett, 2004).

Molecules are shown by their SMILES.

For the assay, the target named is Poly [ADP-ribose] polymerase 1 (Mus musculus) (UniProt P11103). Put plainly: Percent inhibition of poly(ADP-ribose) polymerase-1 (PARP-1) in mouse using Cell protection assay at 10 uM.
Sequence of Poly [ADP-ribose] polymerase 1 (Mus musculus) (P11103 whole entry): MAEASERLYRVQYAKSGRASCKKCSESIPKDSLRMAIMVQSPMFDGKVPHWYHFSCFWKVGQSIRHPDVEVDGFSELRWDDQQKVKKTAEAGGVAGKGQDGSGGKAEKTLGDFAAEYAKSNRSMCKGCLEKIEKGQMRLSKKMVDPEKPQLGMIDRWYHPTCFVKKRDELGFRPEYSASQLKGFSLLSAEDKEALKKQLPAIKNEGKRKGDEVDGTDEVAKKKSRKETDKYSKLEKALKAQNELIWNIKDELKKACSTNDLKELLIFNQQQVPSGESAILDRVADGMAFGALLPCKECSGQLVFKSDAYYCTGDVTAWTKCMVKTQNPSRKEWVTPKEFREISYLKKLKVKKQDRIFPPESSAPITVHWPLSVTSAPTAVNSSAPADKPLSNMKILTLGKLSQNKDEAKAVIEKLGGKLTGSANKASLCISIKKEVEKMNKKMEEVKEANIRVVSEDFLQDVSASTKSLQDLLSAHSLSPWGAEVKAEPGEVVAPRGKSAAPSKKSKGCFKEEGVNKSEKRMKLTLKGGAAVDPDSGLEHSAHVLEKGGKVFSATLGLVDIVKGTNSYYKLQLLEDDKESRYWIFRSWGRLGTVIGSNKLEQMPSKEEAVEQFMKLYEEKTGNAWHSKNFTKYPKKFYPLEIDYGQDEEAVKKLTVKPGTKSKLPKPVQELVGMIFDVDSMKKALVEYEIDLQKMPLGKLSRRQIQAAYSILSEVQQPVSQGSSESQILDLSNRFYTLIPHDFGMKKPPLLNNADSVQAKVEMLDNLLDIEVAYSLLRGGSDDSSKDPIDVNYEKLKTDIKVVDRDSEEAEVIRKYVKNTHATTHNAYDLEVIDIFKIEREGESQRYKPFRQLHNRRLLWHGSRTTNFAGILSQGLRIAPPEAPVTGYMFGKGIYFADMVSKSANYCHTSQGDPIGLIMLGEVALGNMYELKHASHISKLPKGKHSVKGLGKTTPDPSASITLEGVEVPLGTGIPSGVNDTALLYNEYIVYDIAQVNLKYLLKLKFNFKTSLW
For orientation: inhibition means how much of the control response was suppressed. A lower inhibition goes with a weak effect. `Nc1ncnc2c1ncn2C1O[C@H](CNC(=O)/C=C/c2ccc(C(=O)Nc3cccc4c3CNC4=O)cc2)[C@@H](O)[C@H]1O` (some centres undefined) yielded an inhibition of 51%.

`O=C(CCCCCCC(=O)Nc1cccc2c1CNC2=O)NC[C@H]1OC(n2cnc3c(O)ncnc32)[C@H](O)[C@@H]1O` (some centres undefined) came in with an inhibition of 30%.

`O=C1N=Cc2ccccc21` returned an inhibition of 33%.

As for `NC(=O)c1cccc(NC(=O)CCC(=O)NCC2OC(n3cnc4c(N)ncnc43)[C@H](O)[C@@H]2O)c1` (some centres undefined), the inhibition is 52%.
